Measurements as given in ChEMBL document CHEMBL1128492, “Effect of lipophilicity at N-1 on activity of fluoroquinolones against mycobacteria” (J Med Chem, 1995).
≈ marks a conversion by molar mass, not a printed value.

Columns and labels:
[1] = Dissociation constant (pKa1)
[2] = tested on: Mycolicibacterium fortuitum; test: Minimum inhibitory concentration against Mycobacterium fortuitum; assay type: functional
[3] = Dissociation constant (pKa2)
Escherichia coli = test: Minimum inhibitory concentration against gram-negative Escherichia coli Vogel (EC-1); assay type: functional
[4] = tested on: Mycolicibacterium smegmatis; test: Minimum inhibitory concentration against Mycobacterium smegmatis; assay type: functional
Streptococcus pyogenes = test: Minimum inhibitory concentration against gram-positive Streptococcus pyogenes C203 (SP1-1); assay type: functional
Pseudomonas aeruginosa = test: Minimum inhibitory concentration against gram-negative Pseudomonas aeruginosa U1-18 (PA-7); assay type: functional
Staphylococcus aureus = test: Minimum inhibitory concentration against gram-positive Staphylococcus aureus H-228 (SA-13); assay type: functional

Row | pKa [1] | MIC [2] | pKa [3] | MIC (Escherichia coli) | MIC [4] | MIC (Streptococcus pyogenes) | MIC (Pseudomonas aeruginosa) | MIC (Staphylococcus aureus) | Compound
1 | 5.98 | 4 µg/mL (≈ 10.5 µM) | 8.59 | 0.4 µg/mL (≈ 1.05 µM) | 8 µg/mL (≈ 21 µM) | > 3.1 µg/mL | 1.6 µg/mL (≈ 4.19 µM) | 3.1 µg/mL (≈ 8.13 µM) | Cc1ccccc1-n1cc(C(=O)O)c(=O)c2cc(F)c(N3CCNCC3)cc21
2 | 6.01 | 1 µg/mL (≈ 2.44 µM) | 8.55 | 1.6 µg/mL (≈ 3.91 µM) | 8 µg/mL (≈ 19.5 µM) | > 3.1 µg/mL | > 3.1 µg/mL | > 3.1 µg/mL | Cc1ccccc1-n1cc(C(=O)O)c(=O)c2cc(F)c(N3CC(C)NC(C)C3)cc21 (configuration not stated)
3 | 5.94 | 1 µg/mL (≈ 2.24 µM) | 8.47 | 3.1 µg/mL (≈ 6.96 µM) | 4 µg/mL (≈ 8.98 µM) | > 3.1 µg/mL | > 3.1 µg/mL | 1.6 µg/mL (≈ 3.59 µM) | Cc1c(F)ccc(-n2cc(C(=O)O)c(=O)c3cc(F)c(N4CC(C)NC(C)C4)cc32)c1F (configuration not stated)
4 | 5.75 | 2 µg/mL (≈ 4.31 µM) | 8.37 | 1.6 µg/mL (≈ 3.45 µM) | 4 µg/mL (≈ 8.61 µM) | > 3.1 µg/mL | > 3.1 µg/mL | > 3.1 µg/mL | CC1CN(c2cc3c(cc2F)c(=O)c(C(=O)O)cn3-c2ccc(Cl)cc2Cl)CC(C)N1 (configuration not stated)
5 | 6.12 | 2 µg/mL (≈ 5.06 µM) | 8.58 | 0.4 µg/mL (≈ 1.01 µM) | 4 µg/mL (≈ 10.1 µM) | 3.1 µg/mL (≈ 7.84 µM) | 1.6 µg/mL (≈ 4.05 µM) | 1.6 µg/mL (≈ 4.05 µM) | CC1CN(c2cc3c(cc2F)c(=O)c(C(=O)O)cn3-c2ccccc2)CC(C)N1 (configuration not stated)
6 | 6.05 | 4 µg/mL (≈ 9.45 µM) | 8.24 | 3.1 µg/mL (≈ 7.32 µM) | 16 µg/mL (≈ 37.8 µM) | > 3.1 µg/mL | > 3.1 µg/mL | > 3.1 µg/mL | Cc1ccc(-n2cc(C(=O)O)c(=O)c3cc(F)c(N4CC(C)NC(C)C4)cc32)c(C)c1 (configuration not stated)
7 | 5.96 | 1 µg/mL (≈ 2.5 µM) | 8.34 | 0.2 µg/mL (≈ 0.501 µM) | 2 µg/mL (≈ 5.01 µM) | 3.1 µg/mL (≈ 7.76 µM) | 1.6 µg/mL (≈ 4.01 µM) | 1.6 µg/mL (≈ 4.01 µM) | Cc1ccc(-n2cc(C(=O)O)c(=O)c3cc(F)c(N4CCNCC4)cc32)c(F)c1
8 | – | 2 µg/mL (≈ 4.58 µM) | – | 0.4 µg/mL (≈ 0.917 µM) | 4 µg/mL (≈ 9.17 µM) | > 3.1 µg/mL | 3.1 µg/mL (≈ 7.11 µM) | > 3.1 µg/mL | O=C(O)c1cn(-c2ccc(Cl)cc2Cl)c2cc(N3CCNCC3)c(F)cc2c1=O
9 | – | 0.25 µg/mL (≈ 0.605 µM) | – | 0.2 µg/mL (≈ 0.484 µM) | 1 µg/mL (≈ 2.42 µM) | 0.8 µg/mL (≈ 1.94 µM) | 0.8 µg/mL (≈ 1.94 µM) | 0.4 µg/mL (≈ 0.968 µM) | CC1CN(c2cc3c(cc2F)c(=O)c(C(=O)O)cn3-c2ccc(F)cc2)CC(C)N1 (configuration not stated)
10 | 6.16 | 2 µg/mL (≈ 4.68 µM) | 8.16 | 0.4 µg/mL (≈ 0.936 µM) | 2 µg/mL (≈ 4.68 µM) | > 3.1 µg/mL | 1.6 µg/mL (≈ 3.74 µM) | 1.6 µg/mL (≈ 3.74 µM) | Cc1cc(F)ccc1-n1cc(C(=O)O)c(=O)c2cc(F)c(N3CC(C)NC(C)C3)cc21 (configuration not stated)
11 | – | 0.25 µg/mL (≈ 0.649 µM) | – | 0.1 µg/mL (≈ 0.259 µM) | 2 µg/mL (≈ 5.19 µM) | 1.6 µg/mL (≈ 4.15 µM) | 0.8 µg/mL (≈ 2.08 µM) | 0.8 µg/mL (≈ 2.08 µM) | O=C(O)c1cn(-c2ccccc2F)c2cc(N3CCNCC3)c(F)cc2c1=O
12 | 5.87 | 0.25 µg/mL (≈ 0.62 µM) | 8.31 | 0.1 µg/mL (≈ 0.248 µM) | 0.5 µg/mL (≈ 1.24 µM) | 0.4 µg/mL (≈ 0.992 µM) | 0.2 µg/mL (≈ 0.496 µM) | 0.4 µg/mL (≈ 0.992 µM) | O=C(O)c1cn(-c2ccc(F)cc2F)c2cc(N3CCNCC3)c(F)cc2c1=O
13 | – | 16 µg/mL (≈ 40.5 µM) | – | 0.8 µg/mL (≈ 2.02 µM) | 32 µg/mL (≈ 80.9 µM) | > 3.1 µg/mL | 3.1 µg/mL (≈ 7.84 µM) | > 3.1 µg/mL | Cc1ccc(-n2cc(C(=O)O)c(=O)c3cc(F)c(N4CCNCC4)cc32)c(C)c1
14 | 5.88 | 0.5 µg/mL (≈ 1.21 µM) | 8.51 | 0.4 µg/mL (≈ 0.968 µM) | 2 µg/mL (≈ 4.84 µM) | 3.1 µg/mL (≈ 7.5 µM) | 1.6 µg/mL (≈ 3.87 µM) | 1.6 µg/mL (≈ 3.87 µM) | CC1CN(c2cc3c(cc2F)c(=O)c(C(=O)O)cn3-c2ccccc2F)CC(C)N1 (configuration not stated)
15 | 5.87 | 0.5 µg/mL (≈ 1.2 µM) | 8.54 | 0.8 µg/mL (≈ 1.92 µM) | 8 µg/mL (≈ 19.2 µM) | 3.1 µg/mL (≈ 7.43 µM) | 3.1 µg/mL (≈ 7.43 µM) | 1.6 µg/mL (≈ 3.83 µM) | Cc1c(F)ccc(-n2cc(C(=O)O)c(=O)c3cc(F)c(N4CCNCC4)cc32)c1F
16 | – | 1 µg/mL (≈ 2.34 µM) | – | 0.8 µg/mL (≈ 1.87 µM) | 2 µg/mL (≈ 4.68 µM) | > 3.1 µg/mL | 3.1 µg/mL (≈ 7.25 µM) | 3.1 µg/mL (≈ 7.25 µM) | Cc1ccc(-n2cc(C(=O)O)c(=O)c3cc(F)c(N4CC(C)NC(C)C4)cc32)c(F)c1 (configuration not stated)
17 | – | 2 µg/mL (≈ 5.24 µM) | – | 0.4 µg/mL (≈ 1.05 µM) | 4 µg/mL (≈ 10.5 µM) | > 3.1 µg/mL | 1.6 µg/mL (≈ 4.19 µM) | 3.1 µg/mL (≈ 8.13 µM) | Cc1ccc(-n2cc(C(=O)O)c(=O)c3cc(F)c(N4CCNCC4)cc32)cc1
18 | 5.94 | 0.25 µg/mL (≈ 0.579 µM) | 8.26 | 0.4 µg/mL (≈ 0.927 µM) | 0.5 µg/mL (≈ 1.16 µM) | 0.8 µg/mL (≈ 1.85 µM) | 0.8 µg/mL (≈ 1.85 µM) | 0.4 µg/mL (≈ 0.927 µM) | CC1CN(c2cc3c(cc2F)c(=O)c(C(=O)O)cn3-c2ccc(F)cc2F)CC(C)N1 (configuration not stated)
19 | 6.11 | 1 µg/mL (≈ 2.5 µM) | 8.37 | 0.2 µg/mL (≈ 0.501 µM) | 4 µg/mL (≈ 10 µM) | 1.6 µg/mL (≈ 4.01 µM) | 0.4 µg/mL (≈ 1 µM) | 0.8 µg/mL (≈ 2 µM) | Cc1cc(F)ccc1-n1cc(C(=O)O)c(=O)c2cc(F)c(N3CCNCC3)cc21
20 | 6.1 | 1 µg/mL (≈ 2.44 µM) | 8.61 | 0.8 µg/mL (≈ 1.95 µM) | 4 µg/mL (≈ 9.77 µM) | > 3.1 µg/mL | 3.1 µg/mL (≈ 7.57 µM) | 3.1 µg/mL (≈ 7.57 µM) | Cc1ccc(-n2cc(C(=O)O)c(=O)c3cc(F)c(N4CC(C)NC(C)C4)cc32)cc1 (configuration not stated)
21 | 6.02 | 0.25 µg/mL (≈ 0.649 µM) | 8.59 | 0.1 µg/mL (≈ 0.259 µM) | 1 µg/mL (≈ 2.59 µM) | 0.4 µg/mL (≈ 1.04 µM) | 0.2 µg/mL (≈ 0.519 µM) | 0.4 µg/mL (≈ 1.04 µM) | O=C(O)c1cn(-c2ccc(F)cc2)c2cc(N3CCNCC3)c(F)cc2c1=O [SARAFLOXACIN]

Row | Compound | pKa [1] | MIC [2] | pKa [3] | MIC (Escherichia coli) | MIC [4] | MIC (Streptococcus pyogenes) | MIC (Pseudomonas aeruginosa) | MIC (Staphylococcus aureus)
22 | O=C(O)c1cn(-c2ccccc2)c2cc(N3CCNCC3)c(F)cc2c1=O | – | 0.5 µg/mL (≈ 1.36 µM) | – | 0.1 µg/mL (≈ 0.272 µM) | 2 µg/mL (≈ 5.44 µM) | 3.1 µg/mL (≈ 8.44 µM) | 0.8 µg/mL (≈ 2.18 µM) | 0.8 µg/mL (≈ 2.18 µM)
23 | O=C(O)c1cn(C2CC2)c2cc(N3CCNCC3)c(F)cc2c1=O [CIPROFLOXACIN] | – | 0.06 µg/mL (≈ 0.181 µM) | – | – | 0.25 µg/mL (≈ 0.754 µM) | 0.4 µg/mL (≈ 1.21 µM) | 0.2 µg/mL (≈ 0.604 µM) | –
24 | C[C@@H]1CN(c2c(F)c(N)c3c(=O)c(C(=O)O)cn(C4CC4)c3c2F)C[C@H](C)N1 [SPARFLOXACIN] | – | 0.06 µg/mL (≈ 0.153 µM) | – | 0.025 µg/mL (≈ 0.0637 µM) | 0.13 µg/mL (≈ 0.331 µM) | 0.1 µg/mL (≈ 0.255 µM) | 0.8 µg/mL (≈ 2.04 µM) | 0.05 µg/mL (≈ 0.127 µM)
